According to patent US9409884B2 (Rigel Pharmaceuticals, Inc., priority 2012, dated 2016):

Target: AMPK
Assay: AMPK activation, enzyme-linked immunosorbent assay
Type: biochemical
Conditions: Table 8, compounds of Table 1
In short: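 Read-out: ELISA, used to detect compound-driven activation of AMPK.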

EC50 [nM]	Structure (SMILES)
< 100	O=C(NC1CCN(Cc2cccnc2)CC1)c1cncc(OC2CCN(c3ccc(C(F)(F)F)cc3)CC2)c1 [Compound 1-18, N-(1-(pyridin-3-ylmethyl)piperidin-4-yl)-5-(1-(4-(trifluoromethyl)phenyl)piperidin-4-yloxy)nicotinamide]
1000 to 5000	O=C(N[C@@H]1CCN(C(=O)c2ccncc2)C1)c1cc2cc(OC3CCN(c4ccc(C(F)(F)F)cc4)CC3)ccc2o1 [Compound 1-125, (R)-N-(1-isonicotinoylpyrrolidin-3-yl)-5-(1-(4-(trifluoromethyl)phenyl)piperidin-4-yloxy)benzofuran-2-carboxamide]
< 100	N#Cc1ccc(N2CCC(Oc3ccc4oc(C(=O)NC5CCN(Cc6ccccc6)CC5)cc4c3)CC2)cc1 [Compound 1-71, N-(1-benzylpiperidin-4-yl)-5-(1-(4-cyanophenyl)piperidin-4-yloxy)benzofuran-2-carboxamide]
500 to 1000	N#Cc1ccc(CN2CC[C@@H](NC(=O)c3ccc(OC4CCN(c5ccc(C(F)(F)F)cc5)CC4)cn3)C2)cc1 [Compound 1-33, (R)-N-(1-(4-cyanobenzyl)pyrrolidin-3-yl)-5-(1-(4-(trifluoromethyl)phenyl)piperidin-4-yloxy) picolinamide]
500 to 1000	O=C(NC1CCN(Cc2ccc3ccccc3c2)CC1)c1ccc(OC2CCN(c3ccc(C(F)(F)F)cc3)CC2)cn1 [Compound 1-37, N-(1-(naphthalen-2-ylmethyl)piperidin-4-yl)-5-(1-(4-(trifluoromethyl)phenyl)piperidin-4-yloxy)picolinamide]
1000 to 5000	O=C(N[C@H]1CCN(Cc2ccncc2)C1)c1cc2cc(OC3CCN(Cc4ccc(Cl)cc4)CC3)ccc2o1 [Compound 1-129, (S)-5-(1-(4-chlorobenzyl)piperidin-4-yloxy)-N-(1-(pyridin-4-ylmethyl)pyrrolidin-3-yl)benzofuran-2-carboxamide]

Same assay, conditions: Table 9, compounds of Table 2

EC50 [nM]	Structure (SMILES)
> 100000	O=C(NC1CCN(C(=O)c2cccnc2)CC1)c1ccc2[nH]c3c(c2c1)CN(c1ccc(F)cc1)CC3 [Compound 2-40, 2-(4-fluorophenyl)-N-(1-nicotinoylpiperidin-4-yl)-2,3,4,5-tetrahydro-1H-pyrido[4,3-b]indole-8-carboxamide]
< 500	O=C(NC1CCN(Cc2ccc(C(F)(F)F)cc2)CC1)c1ccc2[nH]c3c(c2c1)CN(Cc1ccc(C(F)(F)F)cc1)CC3 [Compound 2-13, N-(1-(4-trifluoromethylbenzyl)piperidin-4-yl)-2-(4-(trifluoromethyl)benzyl)-2,3,4,5-tetrahydro-1H-pyrido[4,3-b]indole-8-carboxamide]
5000 to 10000	O=C(NC1CCN(Cc2ccncc2)CC1)c1ccc2[nH]c3c(c2c1)CN(Cc1ccccc1)CC3 [Compound 2-7, 2-benzyl-N-(1-(pyridin-4-ylmethyl)piperidin-4-yl)-2,3,4,5-tetrahydro-1H-pyrido[4,3-b]indole-8-carboxamide]
10000 to 50000	O=C(NC1CCN(C(=O)c2ccc(C(F)(F)F)cc2)CC1)c1ccc2[nH]c3c(c2c1)CN(c1ccc(F)cc1)CC3 [Compound 2-41, 2-(4-fluorophenyl)-N-(1-(4-(trifluoromethyl)benzoyl)piperidin-4-yl)-2,3,4,5-tetrahydro-1H-pyrido[4,3-b]indole-8-carboxamide]

Same assay, conditions: Table 10, compounds of Table 3

EC50 [nM]	Structure (SMILES)
10000 to 100000	O=C(NC1CCNCC1)c1nc2ccc(OC3CCN(c4ccc(C(F)(F)F)cc4)CC3)cc2o1 [Compound 3-5, N-(piperidin-4-yl)-6-(1-(4-(trifluoromethyl)phenyl)piperidin-4-yloxy)benzo[d]oxazole-2-carboxamide]
< 100	N#Cc1ccc(CN2CCC(NC(=O)c3cn4ccc(OC5CCN(c6ccc(C(F)(F)F)cc6)CC5)cc4n3)CC2)cc1 [Compound 3-18, N-(1-(4-cyanobenzyl)piperidin-4-yl)-7-(1-(4-(trifluoromethyl)phenyl)piperidin-4-yloxy)imidazo[1,2-a]pyridine-2-carboxamide]
< 100	N#Cc1ccc(CN2CCC(NC(=O)c3ccc(C(=O)NC4CCN(Cc5ccc(C(F)(F)F)cc5)CC4)cc3)CC2)cc1 [Compound 3-31, N^1-(1-(4-cyanobenzyl)piperidin-4-yl)-N^4-(1-(4-(trifluoromethyl)benzyl)piperidin-4-yl)terephthalamide]

Same assay, conditions: Table 11, compounds of Table 4

EC50 [nM]	Structure (SMILES)
500 to 1000	N#Cc1ccc(CN2CC[C@H](NC(=O)c3ccc(C(=O)N4CCN(c5ccc(Cl)cc5)CC4)cn3)C2)cc1 [Compound 4-6, (S)-5-(4-(4-chlorophenyl)piperazine-1-carbonyl)-N-(1-(4-cyanobenzyl)pyrrolidin-3-yl)picolinamide]
< 500	N#Cc1ccc(CN2CCC(NC(=O)c3ccc(C(=O)N4CCN(Cc5ccc(C(F)(F)F)cc5)CC4)cn3)CC2)cc1 [Compound 4-3, N-(1-(4-cyanobenzyl)piperidin-4-yl)-5-(4-(4-(trifluoromethyl)benzyl)piperazine-1-carbonyl)picolinamide]

Same assay, conditions: Table 12, compounds of Table 5

EC50 [nM]	Structure (SMILES)
< 1000	O=C(NC1CCN(C(=O)c2ccncc2)CC1)c1ccc(OC2CCN(c3ccc(C(F)(F)F)cc3)CC2)c(F)c1 [Compound 5-40, 3-fluoro-N-(1-isonicotinoylpiperidin-4-yl)-4-(1-(4-(trifluoromethyl)phenyl)piperidin-4-yloxy)benzamide]
< 1000	COC(=O)c1ccc(CN2CCC(NC(=O)c3ccc(OC4CCN(c5ccc(C(F)(F)F)cc5)CC4)c(F)c3)CC2)cc1 [Compound 5-33, methyl 4-((4-(3-fluoro-4-(1-(4-(trifluoromethyl)phenyl)piperidin-4-yloxy)benzamido)piperidin-1-yl)methyl)benzoate]
< 1000	O=C(NC1CCN(Cc2ccc(Cl)cc2)CC1)c1ccc(OC2CCN(Cc3ccc(Cl)cc3)CC2)c(F)c1 [Compound 5-72, N-(1-(4-chlorobenzyl)piperidin-4-yl)-4-(1-(4-chlorobenzyl)piperidin-4-yloxy)-3-fluorobenzamide]
< 1000	O=C(NC1CCN(Cc2ccccc2)CC1)c1ccc(OC2CCN(Cc3cccc(C(F)(F)F)c3)CC2)c(Cl)c1 [Compound 5-60, N-(1-benzylpiperidin-4-yl)-3-chloro-4-(1-(3-(trifluoromethyl)benzyl)piperidin-4-yloxy)benzamide]

Same assay, conditions: Table 13, compounds of Table 6

EC50 [nM]	Structure (SMILES)
< 100	CS(=O)(=O)c1ccc(O[C@H]2CCN(C(=O)c3ccc4oc(C(=O)NC5CCN(Cc6ccc(OC(F)(F)F)cc6)CC5)cc4c3)C[C@@H]2F)cc1 [Compound 6-115, 5-((3,4-trans)-3-fluoro-4-(4-(methylsulfonyl)phenoxy)piperidine-1-carbonyl)-N-(1-(4-(trifluoromethoxy)benzyl)piperidin-4-yl)benzofuran-2-carboxamide]
< 100	CS(=O)(=O)c1ccc(CN2CCN(C(=O)c3ccc4oc(C(=O)NC5CCN(Cc6ccc(-n7cccn7)cc6)CC5)cc4c3)CC2)cc1 [Compound 6-148, N-(1-(4-(1H-pyrazol-1-yl)benzyl)piperidin-4-yl)-5-(4-(4-(methylsulfonyl)benzyl)piperazine-1-carbonyl) benzofuran-2-carboxamide]
< 100	N#Cc1ccc(Oc2ccc(NC(=O)c3cc4cc(C(=O)N5CCC(C(=O)c6ccc(F)cc6)CC5)ccc4o3)cn2)cc1 [Compound 6-17, N-(6-(4-cyanophenoxy)pyridin-3-yl)-5-(4-(4-fluorobenzoyl)piperidine-1-carbonyl)benzofuran-2-carboxamide]
1000 to 10000	CS(=O)(=O)c1ccc(C(=O)Nc2ccc3oc(C(=O)NC4CCN(Cc5ccc(C#N)cc5)CC4)cc3c2)cc1 [Compound 6-85, N-(1-(4-cyanobenzyl)piperidin-4-yl)-5-(4-(methylsulfonyl)benzamido) benzofuran-2-carboxamide]
< 100	CS(=O)(=O)c1ccc(CN2CCN(C(=O)c3ccc4oc(C(=O)NC5CCN(Cc6ccc(OC(F)(F)F)c(F)c6)CC5)cc4c3)CC2)cc1 [Compound 6-138, N-(1-(3-fluoro-4-(trifluoromethoxy)benzyl)piperidin-4-yl)-5-(4-(4-(methylsulfonyl)benzyl)piperazine-1-carbonyl) benzofuran-2-carboxamide]
100 to 1000	CS(=O)(=O)c1ccc(CN2CCN(C(=O)c3ccc4oc(C(=O)NC5CCN(Cc6ccc(OC(F)(F)F)c(Cl)c6)CC5)cc4c3)CC2)cc1 [Compound 6-158, N-(1-(3-chloro-4-(trifluoromethoxy)benzyl)piperidin-4-yl)-5-(4-(4-(methylsulfonyl)benzyl)piperazine-1-carbonyl) benzofuran-2-carboxamide]
100 to 1000	N#Cc1ccc(CN2CCC(NC(=O)c3cc4cc(NC(=O)C5CCN(Cc6ccc(C#N)c(F)c6)CC5)ccc4o3)CC2)cc1 [Compound 6-48, 1-(4-cyano-3-fluorobenzyl)-N-(2-(1-(4-cyanobenzyl)piperidin-4-ylcarbamoyl)benzofuran-5-yl)piperidine-4-carboxamide]
100 to 1000	COc1cc(CN2CCC(NC(=O)c3cc4cc(C(=O)N5CCN(Cc6ccc(S(C)(=O)=O)cc6)CC5)ccc4o3)CC2)ccc1F [Compound 6-98, N-(1-(4-fluoro-3-methoxybenzyl)piperidin-4-yl)-5-(4-(4-(methylsulfonyl)benzyl)piperazine-1-carbonyl) benzofiiran-2-carboxamide]
< 100	CS(=O)(=O)c1ccc(O[C@H]2CCN(C(=O)c3ccc4oc(C(=O)NC5CCN(Cc6ccc(C#N)cc6)CC5)cc4c3)C[C@@H]2F)cc1 [Compound 6-113, N-(1-(4-cyanobenzyl)piperidin-4-yl)-5-((3,4-trans)-3-fluoro-4-(4-(methylsulfonyl)phenoxy)piperidine-1-carbonyl) benzofuran-2-carboxamide]

Same assay, conditions: Table 14, compounds of Table 7

EC50 [nM]	Structure (SMILES)
1000 to 10000	CS(=O)(=O)c1ccc(OC2CCN(C(=O)c3ccc(C(=O)Nc4ccc(Oc5ccc(S(F)(F)(F)(F)F)cc5)nc4)cn3)CC2)cc1 [Compound 7-1, 6-(4-(4-(methylsulfonyl)phenoxy)piperidine-1-carbonyl)-N-(6-(4-(pentafluorosulfanyl)phenoxy)pyridin-3-yl)nicotinamide]
< 1000	O=C(NC1CCN(Cc2ccc(N3CCCC3)cc2)CC1)c1ccc(C(=O)N2CCC(C(=O)c3ccc(N4CCCC4)cc3)CC2)nc1 [Compound 7-114, 6-(4-(4-(pyrrolidin-1-yl)benzoyl)piperidine-1-carbonyl)-N-(1-(4-(pyrrolidin-1-yl)benzyl)piperidin-4-yl)nicotinamide]
